Here are results for twelve compounds from ChEMBL document CHEMBL1149998, “Tannins as selective inhibitors of protein kinase C” (Bioorg Med Chem Lett, 1992).

The target of one experiment is Protein kinase C (PKC). Kind of experiment: Inhibitory activity against protein kinase C (PKC). Format: protein assay, Homo sapiens.
Experiment [1] is described as follows: Inhibition of c-AMP kinase PKA. Details: species or system Bos taurus; call rule not given here.
Experiment [2] concerns the target Protein kinase C, PKC; classical/novel (Homo sapiens) (UniProt O94806+P17252+P05129+Q05655+P05771+Q02156+P24723+Q15139+Q04759). Kind of experiment: Displacement of phorbol [3H]PDBu from protein kinase C; A - Did displace phorbol (PDBu) at 50 uM or less. Format: protein assay.
Experiment [3] is described as follows: Inhibitory activity against c-AMP kinase; Did not inhibit c-AMP kinase.

Each structure is given as a SMILES string.

As a reminder, the IC50 is the concentration that inhibits the measured activity by half. Read a low IC50 as inhibition by little substance.

As to `O=C(OC1COC(=O)c2cc(O)c(O)c(O)c2-c2c(cc(O)c(O)c2O)C(=O)OC1C1OC(=O)c2cc(O)c(O)c(O)c2-c2c(O)c(O)c(O)c3c2C(=O)OC1[C@@H]3O)c1cc(O)c(O)c(O)c1` (stereo partly specified), the 50% inhibitory concentration (IC50) was 11 µM on Protein kinase C (PKC) and 84 µM in experiment [1]. The compound further came in with a Phorbol displacement in experiment [2] of less than 50 µM.

As for `O=C(OC[C@@H]1O[C@@H](OC(=O)c2cc(O)c(O)c(O)c2)[C@@H](OC(=O)c2cc(O)c(O)c(O)c2)[C@@H](OC(=O)c2cc(O)c(O)c(O)c2)[C@@H]1OC(=O)c1cc(O)c(O)c(O)c1Oc1cc2c(c(O)c1O)-c1c(cc(O)c(O)c1O)C(=O)OC[C@@H]1O[C@@H](OC(=O)c3cc(O)c(O)c(O)c3)[C@@H](OC(=O)c3cc(O)c(O)c(O)c3)[C@@H](OC(=O)c3cc(O)c(O)c(O)c3)[C@@H]1OC2=O)c1cc(O)c(O)c(O)c1`, the IC50 on Protein kinase C (PKC) turned out to be 3 µM; in experiment [1], 32 µM. In experiment [2], this compound registered a Phorbol displacement of less than 50 µM.

Consider `O=C1O[C@H]2[C@@H]3OC(=O)c4cc(O)c(O)c(O)c4-c4c(cc(Oc5c(C(=O)O)cc(O)c(O)c5O)c(O)c4O)C(=O)OC[C@H]2O[C@@H](OC(=O)c2cc(O)c(O)c(O)c2)[C@@H]3OC(=O)c2cc(O)c(O)c3c2C2C1=CC(=O)C(O)(O)C2(O)O3` (stereo partly specified) [E181], for which the 50% inhibitory concentration (IC50) turned out to be 16 µM against Protein kinase C (PKC) and 65 µM in experiment [1]. Further, the Phorbol displacement in experiment [2] is less than 50 µM.

As for `O=C(O[C@@H]1O[C@@H]2COC(=O)c3cc(Oc4c(C(=O)O)cc(O)c(O)c4O)c(O)c(O)c3-c3c(cc(O)c(O)c3O)C(=O)O[C@H]([C@H]1O)[C@@H]2O)c1cc(O)c(O)c(O)c1`, the IC50 against Protein kinase C (PKC) stood at 20 µM; in experiment [1], 100 µM. Moreover, in experiment [2], the Phorbol displacement is less than 50 µM.

Take `O=C(O[C@@H]1O[C@H]2COC(=O)c3cc(O)c(O)c(O)c3-c3c(cc(O)c(O)c3O)C(=O)O[C@H]2[C@@H]2OC(=O)c3cc(O)c(O)c(O)c3-c3c(cc(O)c(O)c3O)C(=O)O[C@H]12)c1cc(O)c(O)c(Oc2c(O)c(O)c(O)c3c2C(=O)O[C@H]2[C@@H]4OC(=O)c5cc(O)c(O)c(O)c5-c5c(cc(O)c(O)c5O)C(=O)O[C@@H]4[C@H](OC(=O)c4cc(O)c(O)c(O)c4)O[C@H]2COC(=O)c2cc(O)c(O)c(O)c2-3)c1`: the half-maximal inhibitory concentration (IC50) at Protein kinase C (PKC) stood at 5 µM; in experiment [1], 48 µM. Further, in experiment [2], the Phorbol displacement is less than 50 µM.

As for `O=C1OCC2OC(=O)c3cc(O)c(O)c(O)c3-c3c(O)c(O)c(O)c4c3C(=O)OC(C2OC(=O)c2cc(O)c(O)c(O)c2-c2c1cc(O)c(O)c2O)C1OC(=O)C2C4=C(O)C(=O)C23Oc2cc(O)c4c(c2[C@H]13)O[C@H](c1ccc(O)c(O)c1)[C@@H](O)C4` (stereo partly specified), the figures for the IC50 (at Protein kinase C (PKC); in experiment [1]) were 4 µM and 44 µM, respectively. The compound further gave a Phorbol displacement in experiment [2] of less than 50 µM.

With `O=C(O[C@@H]1O[C@H]2COC(=O)c3cc(O)c(O)c(O)c3-c3c(cc(O)c(O)c3O)C(=O)O[C@H]2[C@@H]2OC(=O)c3cc(O)c(O)c(O)c3-c3c(cc(O)c(O)c3O)C(=O)O[C@H]12)c1cc(O)c(O)c(Oc2c(O)c(O)c(O)c3c2C(=O)O[C@H]2[C@@H]4OC(=O)c5cc(O)c(O)c(O)c5-c5c(cc(O)c(O)c5O)C(=O)O[C@@H]4[C@H](OC(=O)c4cc(O)c(O)c(Oc5c(O)c(O)c(O)c6c5C(=O)O[C@H]5[C@@H]7OC(=O)c8cc(O)c(O)c(O)c8-c8c(cc(O)c(O)c8O)C(=O)O[C@@H]7[C@H](OC(=O)c7cc(O)c(O)c(Oc8c(O)c(O)c(O)c9c8C(=O)O[C@H]8[C@@H]%10OC(=O)c%11cc(O)c(O)c(O)c%11-c%11c(cc(O)c(O)c%11O)C(=O)O[C@@H]%10[C@H](OC(=O)c%10cc(O)c(O)c(O)c%10)O[C@H]8COC(=O)c8cc(O)c(O)c(O)c8-9)c7)O[C@H]5COC(=O)c5cc(O)c(O)c(O)c5-6)c4)O[C@H]2COC(=O)c2cc(O)c(O)c(O)c2-3)c1`, the half-maximal inhibitory concentration (IC50) on Protein kinase C (PKC) is 10 µM; in experiment [1] it was 22 µM. This compound returned a Phorbol displacement in experiment [2] of less than 50 µM.

Regarding `O=C1OCC2OC(=O)c3cc(O)c(O)c(O)c3-c3c(O)c(O)c(O)c4c3C(=O)OC(C2OC(=O)c2cc(O)c(O)c(O)c2-c2c1cc(O)c(O)c2O)C1OC(=O)c2c-4c(O)c(O)c(O)c2[C@@H]1[C@@]1(O)O[C@@H](CO)[C@@H](O)[C@H]1O` (stereo partly specified), the IC50 result is “Not Active” in experiment [3] and 12 µM at Protein kinase C (PKC). In experiment [2], this compound yielded a Phorbol displacement of less than 50 µM.

Consider `Oc1cc(O)c2c(c1)O[C@H](c1ccc(O)c(O)c1)[C@H](O)[C@H]2c1c(O)cc(O)c2c1O[C@H](c1ccc(O)c(O)c1)[C@H](O)[C@H]2c1c(O)cc(O)c2c1O[C@H](c1ccc(O)c(O)c1)[C@H](O)C2` [PROCYANIDIN C1], for which the figures for the IC50 entry (in experiment [3]; against Protein kinase C (PKC)) were “Not Active” and 40 µM, respectively. The compound also yielded a Phorbol displacement in experiment [2] of less than 50 µM.

Regarding `Oc1cc(O)c2c(c1)O[C@H](c1ccc(O)c(O)c1)[C@H](O)[C@H]2c1c(O)cc(O)c2c1O[C@@]1(c3ccc(O)c(O)c3)Oc3cc(O)c4c(c3C2[C@H]1O)O[C@H](c1ccc(O)c(O)c1)[C@H](O)C4c1c(O)cc(O)c2c1O[C@H](c1ccc(O)c(O)c1)[C@H](O)C2` (stereo partly specified), the IC50 entry in experiment [3] was “Not Active”; against Protein kinase C (PKC), 15 µM. For the same compound, the Phorbol displacement in experiment [2] was less than 50 µM.

As for `O=C1OCC2OC(=O)c3cc(O)c(O)c(O)c3-c3c(O)c(O)c(O)c4c3C(=O)OC(C2OC(=O)c2cc(O)c(O)c(O)c2-c2c1cc(O)c(O)c2O)C1OC(=O)c2c-4c(O)c(O)c(O)c2[C@@H]1c1c(O)cc(O)c2c1O[C@H](c1ccc(O)c(O)c1)[C@@H](O)C2` (stereo partly specified), the values for the 50% inhibitory concentration (IC50) (against Protein kinase C (PKC); in experiment [1]) were 7 µM and 95 µM, respectively. Moreover, the Phorbol displacement in experiment [2] was less than 50 µM.

Take `O=C1OCC2OC(=O)c3cc(O)c(O)c(O)c3-c3c(O)c(O)c(O)c4c3C(=O)OC(C2OC(=O)c2cc(O)c(O)c(O)c2-c2c1cc(O)c(O)c2O)C1OC(=O)c2c-4c(O)c(O)c(O)c2[C@@H]1O` (stereo partly specified): the half-inhibitory concentration (IC50) entry was “Not Active” in experiment [3] and 4 µM at Protein kinase C (PKC). Also, in experiment [2], the Phorbol displacement is less than 50 µM.
